Assay results as given in PubChem BioAssay AID330 (DTP/NCI, 2004).
Where “and” joins values, the source holds several entries; their conditions need not be identical. Equal entries are not always repeated. Inconclusive results and toxic doses are left out. The calls were made as follows: active = survival T/C of 150% or more; inactive = T/C below 125% in these data.

System: P388 leukemia ip, CD2F1 mice, survival T/C
Assay: NCI In Vivo Anticancer Drug Screen. Data for tumor model P388 Leukemia (intraperitoneal) in CD2F1 (CDF1) mice
Settings: endpoint: median survival time, higher = longer survival
Summary of the method: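 Mice carrying the transplanted tumor received test compound or vehicle. Survival was recorded in each group, and the value is the treated-group measurement divided by that of the vehicle-treated control group.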

[1] = dose: 60.0 mg/kg/injection, schedule: Q01DX005 (ip), vehicle: saline
[2] = dose: 120.0 mg/kg/injection, schedule: Q01DX005 (ip), vehicle: saline
[3] = dose: 240.0 mg/kg/injection, schedule: Q01DX005 (ip), vehicle: saline
[4] = dose: 100.0 mg/kg/injection, schedule: Q01DX001 (ip), vehicle: Klucel (hydroxypropylcellulose) (HPC)
[5] = dose: 200.0 mg/kg/injection, schedule: Q01DX001 (ip), vehicle: Klucel (hydroxypropylcellulose) (HPC)
[6] = dose: 400.0 mg/kg/injection, schedule: Q01DX001 (ip), vehicle: Klucel (hydroxypropylcellulose) (HPC)
[7] = dose: 25.0 mg/kg/injection, schedule: Q04DX002 (ip), vehicle: saline with Tween-80
[8] = dose: 50.0 mg/kg/injection, schedule: Q04DX002 (ip), vehicle: saline with Tween-80
[9] = dose: 100.0 mg/kg/injection, schedule: Q04DX002 (ip), vehicle: saline with Tween-80
[10] = dose: 50.0 mg/kg/injection, schedule: Q01DX009 (ip), vehicle: saline
[11] = dose: 100.0 mg/kg/injection, schedule: Q01DX009 (ip), vehicle: saline
[12] = dose: 200.0 mg/kg/injection, schedule: Q01DX009 (ip), vehicle: saline
[13] = dose: 50.0 mg/kg/injection, schedule: Q01DX009 (ip), vehicle: Klucel (hydroxypropylcellulose) (HPC)
[14] = dose: 100.0 mg/kg/injection, schedule: Q01DX009 (ip), vehicle: Klucel (hydroxypropylcellulose) (HPC)
[15] = dose: 50.0 mg/kg/injection, schedule: Q01DX001 (ip), vehicle: saline with Tween-80
[16] = dose: 60.0 mg/kg/injection, schedule: Q01DX005 (ip), vehicle: saline with Tween-80
[17] = dose: 120.0 mg/kg/injection, schedule: Q01DX005 (ip), vehicle: saline with Tween-80
[18] = dose: 240.0 mg/kg/injection, schedule: Q01DX005 (ip), vehicle: saline with Tween-80
[19] = dose: 60.0 mg/kg/injection, schedule: Q01DX005 (ip), vehicle: Klucel (hydroxypropylcellulose) (HPC)
[20] = dose: 120.0 mg/kg/injection, schedule: Q01DX005 (ip), vehicle: Klucel (hydroxypropylcellulose) (HPC)
[21] = dose: 240.0 mg/kg/injection, schedule: Q01DX005 (ip), vehicle: Klucel (hydroxypropylcellulose) (HPC)
[22] = dose: 200.0 mg/kg/injection, schedule: Q01DX009 (ip), vehicle: Klucel (hydroxypropylcellulose) (HPC)

Measured: T/C

C1CCC2(CC1)N=C1CCCCC1S2 (configuration not stated)
inactive: dose: 6.25 mg/kg/injection, schedule: Q01DX005 (ip), vehicle: saline + Tween-80 + alcohol 106 % of control | dose: 12.5 mg/kg/injection, schedule: Q01DX005 (ip), vehicle: saline + Tween-80 + alcohol 98 % of control | dose: 25.0 mg/kg/injection, schedule: Q01DX005 (ip), vehicle: saline + Tween-80 + alcohol 104 % of control

Nc1nc(-c2ccc(Cl)cc2)cc(-c2cc(-c3ccc(Cl)cc3)nc(N)n2)n1
inactive: [1] 110 % of control | [2] 102 % of control | [3] 100 % of control

C[S+](C)CCCNC(=O)c1csc(CCNC(=O)c2ccccc2)n1
inactive: dose: 12.5 mg/kg/injection, schedule: Q04DX003 (ip), vehicle: saline + alcohol 95 % of control | dose: 25.0 mg/kg/injection, schedule: Q04DX003 (ip), vehicle: saline + alcohol 100 % of control | dose: 50.0 mg/kg/injection, schedule: Q04DX003 (ip), vehicle: saline + alcohol 100 % of control

Cc1ccc(S(=O)(=O)N/N=C/c2c(Cl)nc3sccn23)cc1
inactive: [4] 111 % of control | [5] 108 % of control | [6] 111 % of control

CC(C)CC1NC(CC(C)C)N2C(CC(C)C)N12 (configuration not stated)
inactive: [4] 103 % of control | [5] 103 % of control | [6] 99 % of control

CSC(=S)/N=c1\ccccn1C
inactive: [7] 102 % of control | [8] 99 % of control | [9] 102 % of control

COC(=O)C1CSC2(CCCN(Cc3ccccc3)C2)N1 (configuration not stated)
inactive: [10] 105 % of control | [11] 122 % of control | [12] 109 % of control

COc1ccc(S(N)(=O)=O)cc1C(=O)NCCN1CCN(c2cccc(C(F)(F)F)c2)CC1
inactive: dose: 50.0 mg/kg/injection, schedule: Q01DX005 (ip), vehicle: Klucel (hydroxypropylcellulose) (HPC) 99 % of control | dose: 100.0 mg/kg/injection, schedule: Q01DX005 (ip), vehicle: Klucel (hydroxypropylcellulose) (HPC) 95 % of control

C=CC#CC#Cc1ccc(C#CC)s1
inactive: dose: 12.5 mg/kg/injection, schedule: Q01DX009 (ip), vehicle: Klucel (hydroxypropylcellulose) (HPC) 96 % of control | dose: 25.0 mg/kg/injection, schedule: Q01DX009 (ip), vehicle: Klucel (hydroxypropylcellulose) (HPC) 100 % of control | [13] 105 % of control | [14] 104 % of control

CC1/C(=N\N=C(N)N)c2ccccc2/C1=N/N=C(N)N (configuration not stated)
inactive: dose: 25.0 mg/kg/injection, schedule: Q01DX001 (ip), vehicle: saline 106 % of control | dose: 50.0 mg/kg/injection, schedule: Q01DX001 (ip), vehicle: saline 102 % of control | dose: 100.0 mg/kg/injection, schedule: Q01DX001 (ip), vehicle: saline 99 % of control

COc1ccccc1N1C(=O)CC(Sc2ccccc2N)C1=O (configuration not stated)
inactive: dose: 100.0 mg/kg/injection, schedule: Q04DX003 (ip), vehicle: saline with Tween-80 104 % of control | dose: 200.0 mg/kg/injection, schedule: Q04DX003 (ip), vehicle: saline with Tween-80 90 % of control | dose: 400.0 mg/kg/injection, schedule: Q04DX003 (ip), vehicle: saline with Tween-80 90 % of control

CC1=CC(=N\S(=O)(=O)c2ccccc2)/c2ccccc2/C1=N/S(=O)(=O)c1ccccc1
inactive: dose: 12.5 mg/kg/injection, schedule: Q01DX001 (ip), vehicle: saline with Tween-80 104 % of control | dose: 25.0 mg/kg/injection, schedule: Q01DX001 (ip), vehicle: saline with Tween-80 100 % of control | [15] 95 % of control

CCOC(=O)C1CSC(c2ccccc2)=N1 (configuration not stated)
inactive: [16] 109 % of control | [17] 111 % of control | [18] 111 % of control

CN1CCc2c(n(C)c3ccccc23)C1=O
inactive: [7] 102 % of control | [8] 98 % of control | [9] 106 % of control | dose: 200.0 mg/kg/injection, schedule: Q04DX002 (ip), vehicle: saline with Tween-80 101 % of control | dose: 400.0 mg/kg/injection, schedule: Q04DX002 (ip), vehicle: saline with Tween-80 99 % of control

COc1ccc(CCN(Cc2ccc([N+](=O)[O-])cc2)C(=O)c2ccccc2)c(C=O)c1OC
inactive: dose: 100.0 mg/kg/injection, schedule: Q01DX001 (ip), vehicle: saline + alcohol 95 % of control | dose: 200.0 mg/kg/injection, schedule: Q01DX001 (ip), vehicle: saline + alcohol 97 % of control | dose: 400.0 mg/kg/injection, schedule: Q01DX001 (ip), vehicle: saline + alcohol 89 % of control

CC(C)(O)c1cccs1
inactive: [1] 100 % of control | [2] 100 % of control | [3] 99 % of control

N#CC1=C(N)OC(C2CC2)=C(C#N)C1c1cccs1 (configuration not stated)
inactive: [19] 104 % of control | [20] 100 % of control | [21] 96 % of control

COc1cccc(/C=N/NC(=O)CNC(=O)Nc2cccc([N+](=O)[O-])c2)c1OC
inactive: [16] 90 % of control | [17] 89 % of control and 96 % of control | [18] 99 % of control and 100 % of control

CC1(C)CC(=O)N(Cc2ccccc2)N1C(=O)c1ccccc1
inactive: [15] 100 % of control | dose: 100.0 mg/kg/injection, schedule: Q01DX001 (ip), vehicle: saline with Tween-80 95 % of control | dose: 200.0 mg/kg/injection, schedule: Q01DX001 (ip), vehicle: saline with Tween-80 100 % of control

COc1cccc2c(=O)cc(-c3ccccc3)sc12
inactive: [19] 98 % of control | [20] 97 % of control | [21] 90 % of control

CC(CN(C)C)C(=O)/C=C/c1ccc(F)c(F)c1 (configuration not stated)
inactive: [1] 100 % of control and 103 % of control | [2] 116 % of control and 124 % of control

C=CCN1C(=O)CSC1=S
inactive: [14] 100 % of control | [22] 108 % of control | dose: 400.0 mg/kg/injection, schedule: Q01DX009 (ip), vehicle: Klucel (hydroxypropylcellulose) (HPC) 110 % of control

O=C1CCC2CCCCC2C1 (configuration not stated)
inactive: [13] 97 % of control | [14] 104 % of control | [22] 88 % of control

CC(=O)C1CCC(=O)N1C(C)=O (configuration not stated)
inactive: [10] 100 % of control | [11] 106 % of control | [12] 114 % of control

COC(=O)C(O)(/C(=N\O)c1ccccc1)c1ccccc1 (configuration not stated)
inactive: [16] 97 % of control | [17] 90 % of control

O=C1c2cc(Oc3ccccc3)c(S(=O)(=O)O)c(S(=O)(=O)O)c2C(=O)c2c(O)ccc(O)c21
inactive: dose: 25.0 mg/kg/injection, schedule: Q01DX005 (ip), vehicle: saline 104 % of control | dose: 50.0 mg/kg/injection, schedule: Q01DX005 (ip), vehicle: saline 107 % of control | dose: 100.0 mg/kg/injection, schedule: Q01DX005 (ip), vehicle: saline 94 % of control | dose: 200.0 mg/kg/injection, schedule: Q01DX005 (ip), vehicle: saline 94 % of control

CC(=O)N(c1ccncc1)c1ccc([N+](=O)[O-])cc1
inactive: [16] 94 % of control | [17] 92 % of control | [18] 88 % of control
